In PMC1198236, “β-adrenergic receptor activation in immortalized human urothelial cells stimulates inflammatory responses by PKA-independent mechanisms” (Cell communication and signaling : CCS, 2005) one finds Kd data, which are given here for one compound.

This experiment deals with β-adrenergic receptor (β-AR; subtype not determined).

Molecules are shown by their SMILES.

In the case of `CC(C)(C)NC[C@H](O)COc1cccc2[nH]c(C#N)c(I)c12` [125I-CYP, (-)3-[125I]iodocyanopindolol], the affinity, expressed as Kd, was 0.0324 ± 0.0011 nM.
